From article PMC10785756, “Hydrolysis of Antimicrobial Peptides by Extracellular Peptidases in Wastewater” (Environmental Science & Technology, 2023)
Like-named read-outs stand apart in the source and are kept apart here. Peptide text beside a SMILES is read from it.

How the values were obtained:
[1] = tested on: extracellular wastewater peptidases (pool I extracts from WWTP influents); assay: Absolute quantification of transformation products (TPs) formed during AMP incubation with wastewater extracts; type: in vitro ADME
Procedure: We thawed enzyme extracts and transferred 1.35 mL to 2 mL protein LoBind Eppendorf tubes. For autoclaved controls, extract aliquots of 1.5 mL were autoclaved for 20 min at 121 °C and 2 bar (Wolf Sanoclav LaS-MCS-J) and 1.35 mL of the autoclaved extracts were transferred into 2 mL protein LoBind Eppendorf tubes. We then spiked 150 μL of the AMP stock solution containing all AMPs at 10 μg/mL to the enzyme extracts or 1.35 mL of ultrapure water. […] Triplicate incubations were conducted for the autoclaved and active extracts with spiked AMP. After AMP spiking, we mixed the solutions by inverting the vials and incubating them at 20 °C under horizontal shaking at 300 rpm. To stop enzymatic reactions at pre-defined sampling time points (i.e., 2 min, 30 min, 1 h, 2 h, and 4 h), we transferred 150 μL of the incubation solution to 450 μL of acetonitrile containing 1% (v/v) formic acid in 1.5 mL protein LoBind Eppendorf tubes, mixed the resulting solution by inverting the tube and by horizontally shaking it at 300 rpm for 2 min at 20 °C, and centrifuged samples at 16,000g for 1 min. This protocol step was conducted according to Luther et al.[9] We then transferred the supernatant into a fresh 1.5 mL protein LoBind Eppendorf tube and dried it in a SpeedVac vacuum concentrator (30 °C for approximately 6 h). To resolubilize AMPs, we added 150 μL of water containing 5% (v/v) acetonitrile and 0.1% (v/v) formic acid, vortexed the samples, and centrifuged them for 10 s at 1000g at room temperature. We transferred the solution into QuanRecovery HPLC vials (Waters, 186009186) and stored the samples at −20 °C until analysis. For method development, selected (and indicated) samples were sonicated (Sonorex Super RK 106, Bandelin, max 480 W) for 5 min at different steps of the sample preparation process.
We analyzed AMPs using UHPLC (Thermo Scientific Dionex Ultimate 3000) equipped with a Waters XSelect PREMIER CSH C18 column (article number: 186009870) coupled to HRMS (Thermo QExactive). […] We used Skyline (version 20.2.0.343) to analyze the raw data. Criteria for parent peptides and hydrolysis product identification were set as described before:[31]m/z deviation <2 ppm, MS/MS fragments with m/z deviation <5 ppm, and reasonable chromatographic peak shape. For products, the peak area had to either increase throughout the incubation experiment or first increase and then decrease.
To learn about the enzymatic hydrolysis pathways of AMPs that we found to be rapidly biotransformed by enzymes in wastewater extracts, we predicted all products of single peptide bond hydrolysis reactions and screened our data-dependent high-resolution mass spectrometry data for experimental evidence in support of the predicted hydrolysis products. These analyses were conducted for the AMPs with the highest biotransformation extents (i.e., >0.5 in at least two WWTPs), namely, cecropin P1, omiganan, and R8. The following requirements for transformation products (TPs) were defined: at least three amino acids, peak area either increases during the incubation experiment or first increases and then decreases, peak area exceeds that in AMP-free enzyme extract by >5-fold and that in spiked autoclaved extracts by >6-fold, and mass deviation <2 ppm from the calculated exact mass. Mass lists, mass deviations, and retention times of all TPs can be found in Tables S6–S11. We further predicted TPs formed via exocleavage mechanisms (i.e., cleavage of one or two terminal amino acids simultaneously from the C- and N- terminus of the peptide) and screened for these TPs in the HRMS data.
For cecropin P1, we performed absolute quantification for TPs II, III, IV, V, VI, and X and found the highest concentrations for TP III. Up to 8.8% of spiked cecropin P1 is converted to TP III during incubations with wastewater extract. For TP II, the conversion ranges from 3.7–5.7%, and for TP V and VI, conversions range between 1.5 and 4.9 and 2.1 and 2.9%, respectively. […]

[2] = tested on: extracellular wastewater peptidases (pool I extracts from WWTP influents); assay: AMP incubation with active dissolved extracellular wastewater extracts (pool I) from WWTP influents; type: in vitro ADME
Procedure: We took samples from four municipal WWTPs in Austria ([…], and D). […] Where existing, we sampled the following five stages along the wastewater treatment process: influent, primary clarification tank, high-load and low-load aeration tanks, and effluent. […] We took 2 × 500 mL grab samples at each stage using a plastic beaker. We transferred the samples into 500 mL glass bottles leaving roughly one-third of the bottle empty, transported them to the lab, and pooled duplicate samples for further processing. Enzyme extraction started within 1 h after sampling. For total suspended solid (TSS) determination, we filtered 20 mL of each sample through a preweighed, dry GF/F Whatman glass microfiber filter (Sigma-Aldrich, WHA1825047) using a vacuum filtration system, dried the filters at 105 °C for 2 h, and determined the TSS contents from the weight difference. […] Otherwise, the extraction process was the same for pools I and II. All extractions were performed in triplicate, and extracts were kept on ice until further use. […] Triplicate incubations were conducted for the autoclaved and active extracts with spiked AMP. […] This protocol step was conducted according to Luther et al.[9] We then transferred the supernatant into a fresh 1.5 mL protein LoBind Eppendorf tube and dried it in a SpeedVac vacuum concentrator (30 °C for approximately 6 h). […] We transferred the solution into QuanRecovery HPLC vials (Waters, 186009186) and stored the samples at -20 °C until analysis. For method development, selected (and indicated) samples were sonicated (Sonorex Super RK 106, Bandelin, max 480 W) for 5 min at different steps of the sample preparation process. We analyzed AMPs using UHPLC (Thermo Scientific Dionex Ultimate 3000) equipped with a Waters XSelect PREMIER CSH C18 column (article number: 186009870) coupled to HRMS (Thermo QExactive). We injected 10 μL of each sample and applied a flow rate of 0.4 mL/min using the following eluent gradient (A: ultrapure water, B: […] Detection parameters were chosen as follows: […] We used Skyline (version 20.2.0.343) to analyze the raw data. […] For products, the peak area had to either increase throughout the incubation experiment or first increase and then decrease.

[3] = tested on: dissolved extracellular wastewater enzymes derived from aeration tanks of WWTPs; details: cited from earlier work
Procedure: Our results on daptomycin are consistent with an earlier study that reported daptomycin concentrations to be stable during its incubation with dissolved extracellular wastewater enzymes derived from aeration tanks of WWTPs.[33] We note that daptomycin concentrations in experiments with autoclaved controls were lower compared to active extracts for ...

[4] = maximum TP concentration corrected for sorption to the wastewater matrix
[5] = maximum TP concentration during incubation of parent AMP with wastewater extracts, synthetic standards, HPLC-HRMS
[6] = pool I influent extracts, WWTPs A-D, absolute quantification with synthetic peptide standards, HPLC-HRMS, triplicate incubations
[7] = pool I influent extracts, WWTPs A-D, active compared with autoclaved extracts, 20 °C, up to 4 h, HPLC-HRMS, triplicate incubations

## CC(C)C[C@H](NC(=O)[C@H](Cc1c[nH]c2ccccc12)NC(=O)[C@@H](N)CO)C(=O)N[C@@H](CO)C(=O)N[C@@H](CCCCN)C(=O)N[C@H](C(=O)O)[C@@H](C)O [SWLSKT (X)] (H-SWLSKT-OH)
[1]; [4]
  Potential conc. considering sorption: 3.7 µg/L
[1]; [5]
  Maximum conc. detected in exp.: 2.9 µg/L
[1]; [6]
  conversion of spiked parent AMP to the TP during incubation with wastewater extract: less than 1%

## CC(C)C[C@H](NC(=O)[C@H](Cc1c[nH]c2ccccc12)NC(=O)[C@@H](N)CO)C(=O)O [SWL (IV)] (H-Ser-Trp-Leu-OH)
[1]
  Maximum conc. detected in exp.: 2.7 µg/L
  Potential conc. considering sorption: 3.4 µg/L
  conversion of spiked parent AMP to the TP during incubation with wastewater extract: less than 1%

## CC(C)C[C@H](NC(=O)[C@@H](N)Cc1ccccc1)C(=O)NCC(=O)N[C@@H](CCCCN)C(=O)N[C@H](C(=O)O)C(C)C [FLGKV (II)] (H-FLGKV-OH)
[1]; [4]
  Potential conc. considering sorption: 19.5 µg/L
[1]; [5]
  Maximum conc. detected in exp.: 16.5 µg/L

## CC[C@H](C)[C@H](N)C(=O)N[C@@H](CC(C)C)C(=O)N[C@@H](CCCNC(=N)N)C(=O)N[C@@H](Cc1c[nH]c2ccccc12)C(=O)N1CCC[C@H]1C(=O)N[C@@H](Cc1c[nH]c2ccccc12)C(=O)N[C@@H](Cc1c[nH]c2ccccc12)C(=O)N1CCC[C@H]1C(=O)O [ILRWPWWP (I)] (H-ILRWPWWP-OH)
[1]
  Maximum conc. detected in exp.: 6.9 µg/L
  Potential conc. considering sorption: 8.1 µg/L
  conversion of spiked parent AMP to the TP during incubation with wastewater extract: less than 1%

## CC(C)C[C@H](NC(=O)[C@H](Cc1c[nH]c2ccccc12)NC(=O)[C@@H](N)CO)C(=O)N[C@@H](CO)C(=O)O [SWLS (II)] (H-SWLS-OH)
[1]; [4]
  Potential conc. considering sorption: 69.5 µg/L
[1]; [5]
  Maximum conc. detected in exp.: 57.1 µg/L
[1]; [6]
  conversion of spiked parent AMP to the TP during incubation with wastewater extract: 3.7–5.7%

## murepavadin
[2]
  removal by biotransformation in active wastewater extracts (in words): did not observe substantial removal

## CC(C)[C@H](N)C(=O)N[C@@H](Cc1ccccc1)C(=O)NCC(=O)N[C@@H](CCCCN)C(=O)N[C@H](C(=O)O)C(C)C [VFGKV (VII)] (H-VFGKV-OH)
[1]; [4]
  Potential conc. considering sorption: 47.1 µg/L
[1]; [5]
  Maximum conc. detected in exp.: 32.1 µg/L

## bacitracin A
[2]; [7]
  removal by biotransformation in active wastewater extracts (in words): did not observe substantial removal

## CC(C)[C@H](NC(=O)[C@H](CCCCN)NC(=O)CNC(=O)[C@H](Cc1ccccc1)NC(=O)[C@@H](NC(=O)[C@H](C)N)C(C)C)C(=O)O [AVFGKV (V)] (H-AVFGKV-OH)
[1]; [4]
  Potential conc. considering sorption: 30.0 µg/L
[1]; [5]
  Maximum conc. detected in exp.: 27.5 µg/L

## omiganan
[2]
  biotransformation extent (eq 1, from concentrations in active and autoclaved extracts): > 0.5
  removal by biotransformation in active wastewater extracts (in words): rapidly removed to nonquantifiable concentrations

## CC(C)C[C@H](NC(=O)[C@@H](N)Cc1ccccc1)C(=O)NCC(=O)O [FLG (IV)] (H-Phe-Leu-Gly-OH)
[1]
  Maximum conc. detected in exp.: 22.8 µg/L
  Potential conc. considering sorption: 29.3 µg/L

## CC[C@H](C)[C@H](NC(=O)[C@H](C)N)C(=O)N[C@@H](CCC(N)=O)C(=O)NCC(=O)NCC(=O)N1CCC[C@H]1C(=O)N[C@@H](CCCNC(=N)N)C(=O)O [AIQGGPR (V)] (H-AIQGGPR-OH)
[1]; [4]
  Potential conc. considering sorption: 78.2 µg/L
[1]; [5]
  Maximum conc. detected in exp.: 48.6 µg/L

## colistin A
[2]
  removal by biotransformation in active wastewater extracts (in words): biotransformed
[2]; pool I influent extracts, WWTPs A-D, all AMPs spiked together (150 μL of 10 μg/mL into 1.35 mL extract), 20 °C, 300 rpm, sampling 2 min to 4 h, HPLC-HRMS, triplicate incubations, maximum over WWTPs
  detectable removal during incubation, of the amounts detected at the first time point, in active extracts: up to 50%

## daptomycin
[3]
  daptomycin concentration during incubation with dissolved extracellular wastewater enzymes: stable
[2]; [7]
  removal by biotransformation in active wastewater extracts (in words): did not observe substantial removal

## CC(C)C[C@H](NC(=O)[C@@H](N)Cc1ccccc1)C(=O)NCC(=O)N[C@@H](CCCCN)C(=O)N[C@H](C(=O)N[C@@H](Cc1ccccc1)C(=O)O)C(C)C [FLGKVF (I)] (H-FLGKVF-OH)
[1]; [4]
  Potential conc. considering sorption: 101.9 µg/L
[1]; [5]
  Maximum conc. detected in exp.: 78.3 µg/L
[1]; [6]
  conversion of spiked parent AMP to the TP during incubation with wastewater extract: Up to 7.8%

## CC(C)C[C@H](NC(=O)[C@H](Cc1c[nH]c2ccccc12)NC(=O)[C@@H](N)CO)C(=O)N[C@@H](CO)C(=O)N[C@@H](CCCCN)C(=O)N[C@H](C(=O)N[C@@H](C)C(=O)O)[C@@H](C)O [SWLSKTA (VI)] (H-SWLSKTA-OH)
[1]; [4]
  Potential conc. considering sorption: 36.4 µg/L
[1]; [5]
  Maximum conc. detected in exp.: 28.6 µg/L

## colistin B
[2]
  removal by biotransformation in active wastewater extracts (in words): biotransformed

## CC[C@H](C)[C@H](N)C(=O)N[C@@H](CCC(N)=O)C(=O)NCC(=O)NCC(=O)N1CCC[C@H]1C(=O)N[C@@H](CCCNC(=N)N)C(=O)O [IQGGPR (III)] (H-IQGGPR-OH)
[1]; [4]
  Potential conc. considering sorption: 124.8 µg/L
[1]; [5]
  Maximum conc. detected in exp.: 87.8 µg/L
[1]; [6]
  conversion of spiked parent AMP to the TP during incubation with wastewater extract: Up to 8.8%
